Assay results taken from PubChem BioAssay AID1918944 (Molecular Pharmacology Branch, DTP, NCI, 2023).
“And” between values parts separate entries of the source, which are not always exact repeats. Equal values may be shown once. Values belong to the compound of their own block, whether it stands above or below them.

System: 786-0 complex spheroid viability
Assay: Anticancer human tumor 786-0 cell line growth inhibition;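 further: spheroids exposed to agents for seven days before readout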
Settings: for viability, T/C: stronger effect = lower value
Outline: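 Drug combinations with the LSD1 inhibitor iadademstat tested on tumor cells co-cultured as spheroids with endothelial cells and mesenchymal stem cells. Concentrations descended in half-log increments from clinical Cmax or 10 microM.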

[1] = curve of first compound, second compound 0.1 µM
[2] = curve of first compound, second compound 0.316 µM
[3] = curve of first compound, second compound 1 µM
[4] = curve of first compound, second compound 3.16 µM
[5] = curve of first compound, second compound 10 µM
[6] = second compound 0.1 µM, first compound 0.00316 µM
[7] = second compound 0.1 µM, first compound 0.01 µM
[8] = second compound 0.1 µM, first compound 0.0316 µM
[9] = second compound 0.1 µM, first compound 0.1 µM
[10] = second compound 0.1 µM, first compound 0.316 µM
[11] = second compound 0.1 µM, first compound 1 µM
[12] = second compound 0.316 µM, first compound 0.00316 µM
[13] = second compound 0.316 µM, first compound 0.01 µM
[14] = second compound 0.316 µM, first compound 0.0316 µM
[15] = second compound 0.316 µM, first compound 0.1 µM
[16] = second compound 0.316 µM, first compound 0.316 µM
[17] = second compound 0.316 µM, first compound 1 µM
[18] = second compound 1 µM, first compound 0.00316 µM
[19] = second compound 1 µM, first compound 0.01 µM
[20] = second compound 1 µM, first compound 0.0316 µM
[21] = second compound 1 µM, first compound 0.1 µM
[22] = second compound 1 µM, first compound 0.316 µM
[23] = second compound 1 µM, first compound 1 µM
[24] = second compound 3.16 µM, first compound 0.00316 µM
[25] = second compound 3.16 µM, first compound 0.01 µM
[26] = second compound 3.16 µM, first compound 0.0316 µM
[27] = second compound 3.16 µM, first compound 0.1 µM
[28] = second compound 3.16 µM, first compound 0.316 µM
[29] = second compound 3.16 µM, first compound 1 µM
[30] = second compound 10 µM, first compound 0.00316 µM
[31] = second compound 10 µM, first compound 0.01 µM
[32] = second compound 10 µM, first compound 0.0316 µM
[33] = second compound 10 µM, first compound 0.1 µM
[34] = second compound 10 µM, first compound 0.316 µM
[35] = second compound 10 µM, first compound 1 µM
[36] = second compound 0.1 µM, first compound 0.000316 µM
[37] = second compound 0.1 µM, first compound 0.001 µM
[38] = second compound 0.316 µM, first compound 0.000316 µM
[39] = second compound 0.316 µM, first compound 0.001 µM
[40] = second compound 1 µM, first compound 0.000316 µM
[41] = second compound 1 µM, first compound 0.001 µM
[42] = second compound 3.16 µM, first compound 0.000316 µM
[43] = second compound 3.16 µM, first compound 0.001 µM
[44] = second compound 10 µM, first compound 0.000316 µM
[45] = second compound 10 µM, first compound 0.001 µM
[46] = second compound 0.1 µM, first compound 3.16 µM
[47] = second compound 0.1 µM, first compound 10 µM
[48] = second compound 0.316 µM, first compound 3.16 µM
[49] = second compound 0.316 µM, first compound 10 µM
[50] = second compound 1 µM, first compound 3.16 µM
[51] = second compound 1 µM, first compound 10 µM
[52] = second compound 3.16 µM, first compound 3.16 µM
[53] = second compound 3.16 µM, first compound 10 µM
[54] = second compound 10 µM, first compound 3.16 µM
[55] = second compound 10 µM, first compound 10 µM

IC50 (curve of compound): 241 nM and 396 nM
SMILES: COc1cc(C2c3cc4c(cc3C(OC3OC5COC(C)OC5C(O)C3O)C3COC(=O)C23)OCO4)cc(OC)c1O (centres undefined)
viability, T/C (compound 0.00949 µM): 103% and 96%
viability, T/C (compound 0.03 µM): 96.4% and 94.6%
viability, T/C (compound 0.0949 µM): 63.6% and 72.1%
viability, T/C (compound 0.3 µM): 49.5% and 53.4%
viability, T/C (compound 0.949 µM): 23.1% and 38.4%
viability, T/C (compound 3 µM): 11.1% and 21.9%

SMILES: COc1cc(Nc2ncc3c(n2)-c2ccc(Cl)cc2C(c2c(F)cccc2OC)=NC3)ccc1C(=O)O + NC1CC1c1ccc(-c2cccc(O)c2)cc1
IC50 [1]: 584 nM
IC50 [2]: 638 nM
IC50 [3]: 431 nM
IC50 [4]: 588 nM
IC50 [5]: 955 nM
viability, T/C [6]: 96.3%
viability, T/C [7]: 86.8%
viability, T/C [8]: 69%
viability, T/C [9]: 65%
viability, T/C [10]: 55.5%
viability, T/C [11]: 45.4%
viability, T/C [12]: 105%
viability, T/C [13]: 94.5%
viability, T/C [14]: 77%
viability, T/C [15]: 67.1%
viability, T/C [16]: 55.4%
viability, T/C [17]: 46.4%
viability, T/C [18]: 93.3%
viability, T/C [19]: 83.6%
viability, T/C [20]: 70.3%
viability, T/C [21]: 66.9%
viability, T/C [22]: 52%
viability, T/C [23]: 42.2%
viability, T/C [24]: 89.7%
viability, T/C [25]: 86.1%
viability, T/C [26]: 68.5%
viability, T/C [27]: 66.1%
viability, T/C [28]: 56.9%
viability, T/C [29]: 44.7%
viability, T/C [30]: 84.6%
viability, T/C [31]: 77.7%
viability, T/C [32]: 67.9%
viability, T/C [33]: 72.2%
viability, T/C [34]: 56.7%
viability, T/C [35]: 49.4%

IC50 (curve of compound): 915 nM and 1440 nM
SMILES: O=C(C=Cc1cccc(S(=O)(=O)Nc2ccccc2)c1)NO
viability, T/C (compound 0.00949 µM): 96.4% and 90.1%
viability, T/C (compound 0.03 µM): 94.9% and 96.3%
viability, T/C (compound 0.0949 µM): 98.5% and 102%
viability, T/C (compound 0.3 µM): 93.5% and 98.6%
viability, T/C (compound 0.949 µM): 48.6% and 73.1%
viability, T/C (compound 3 µM): 6.1% and 9.6%

SMILES: Cn1ncnc1C1c2n[nH]c(=O)c3cc(F)cc(c23)NC1c1ccc(F)cc1 (centres undefined) + NC1CCC(NC2CC2c2ccccc2)CC1
IC50 [1]: > 100 nM
IC50 [2]: > 100 nM
IC50 [3]: > 100 nM
IC50 [4]: > 100 nM
IC50 [5]: > 100 nM
viability, T/C [36]: 117%
viability, T/C [37]: 114%
viability, T/C [6]: 117%
viability, T/C [7]: 113%
viability, T/C [8]: 109%
viability, T/C [9]: 109%
viability, T/C [38]: 127%
viability, T/C [39]: 118%
viability, T/C [12]: 121%
viability, T/C [13]: 117%
viability, T/C [14]: 115%
viability, T/C [15]: 113%
viability, T/C [40]: 109%
viability, T/C [41]: 115%
viability, T/C [18]: 114%
viability, T/C [19]: 115%
viability, T/C [20]: 110%
viability, T/C [21]: 105%
viability, T/C [42]: 107%
viability, T/C [43]: 106%
viability, T/C [24]: 112%
viability, T/C [25]: 109%
viability, T/C [26]: 106%
viability, T/C [27]: 98.8%
viability, T/C [44]: 90.5%
viability, T/C [45]: 88.1%
viability, T/C [30]: 91.5%
viability, T/C [31]: 89.3%
viability, T/C [32]: 91.5%
viability, T/C [33]: 84.1%

SMILES: CC1COCCN1c1cc(C2(S(C)(=N)=O)CC2)nc(-c2ccnc3[nH]ccc23)n1 (centres undefined) + NC1CCC(NC2CC2c2ccccc2)CC1
IC50 [1]: 886 nM
IC50 [2]: 792 nM
IC50 [3]: 795 nM
IC50 [4]: 604 nM
IC50 [5]: 294 nM
viability, T/C [8]: 118%
viability, T/C [9]: 114%
viability, T/C [10]: 104%
viability, T/C [11]: 43%
viability, T/C [46]: 15.3%
viability, T/C [47]: 6.76%
viability, T/C [14]: 125%
viability, T/C [15]: 116%
viability, T/C [16]: 93.4%
viability, T/C [17]: 38.1%
viability, T/C [48]: 14.7%
viability, T/C [49]: 6.62%
viability, T/C [20]: 112%
viability, T/C [21]: 116%
viability, T/C [22]: 89.2%
viability, T/C [23]: 40%
viability, T/C [50]: 13%
viability, T/C [51]: 4.93%
viability, T/C [26]: 109%
viability, T/C [27]: 103%
viability, T/C [28]: 72.8%
viability, T/C [29]: 32.3%
viability, T/C [52]: 9.43%
viability, T/C [53]: 5.16%
viability, T/C [32]: 94.1%
viability, T/C [33]: 77.5%
viability, T/C [34]: 48.3%
viability, T/C [35]: 20.8%
viability, T/C [54]: 5.55%
viability, T/C [55]: 2.91%

SMILES: O=C(C=Cn1cnc(-c2cc(C(F)(F)F)cc(C(F)(F)F)c2)n1)NNc1cnccn1 + NC1CCC(NC2CC2c2ccccc2)CC1
IC50 [1]: 25.4 nM
IC50 [2]: 20.2 nM
IC50 [3]: 22.7 nM
IC50 [4]: 16.4 nM
IC50 [5]: 11.9 nM
viability, T/C [6]: 94.3%
viability, T/C [7]: 68.9%
viability, T/C [8]: 44.6%
viability, T/C [9]: 31.8%
viability, T/C [10]: 21%
viability, T/C [11]: 17.9%
viability, T/C [12]: 97.4%
viability, T/C [13]: 61.9%
viability, T/C [14]: 42.1%
viability, T/C [15]: 30.7%
viability, T/C [16]: 21.2%
viability, T/C [17]: 18.6%
viability, T/C [18]: 90.8%
viability, T/C [19]: 63.4%
viability, T/C [20]: 42.6%
viability, T/C [21]: 34.4%
viability, T/C [22]: 21.6%
viability, T/C [23]: 15.7%
viability, T/C [24]: 81%
viability, T/C [25]: 51.6%
viability, T/C [26]: 43.6%
viability, T/C [27]: 31.7%
viability, T/C [28]: 20.8%
viability, T/C [29]: 14.9%
viability, T/C [30]: 74%
viability, T/C [31]: 48.3%
viability, T/C [32]: 37.5%
viability, T/C [33]: 35.1%
viability, T/C [34]: 19.9%
viability, T/C [35]: 16.9%

SMILES: CC(C)CC(NC(=O)CNC(=O)c1cc(Cl)ccc1Cl)B1OC(=O)CC(CC(=O)O)(C(=O)O)O1 (centres undefined) + NC1CCC(NC2CC2c2ccccc2)CC1
IC50 [1]: 12.9 nM
IC50 [2]: 10.7 nM
IC50 [3]: 12 nM
IC50 [4]: 9.62 nM
IC50 [5]: 10.2 nM
viability, T/C [36]: 127%
viability, T/C [37]: 123%
viability, T/C [6]: 110%
viability, T/C [7]: 52.4%
viability, T/C [8]: 32.4%
viability, T/C [9]: 9.25%
viability, T/C [38]: 129%
viability, T/C [39]: 130%
viability, T/C [12]: 121%
viability, T/C [13]: 51.6%
viability, T/C [14]: 30.7%
viability, T/C [15]: 8.11%
viability, T/C [40]: 113%
viability, T/C [41]: 128%
viability, T/C [18]: 112%
viability, T/C [19]: 52.3%
viability, T/C [20]: 34.1%
viability, T/C [21]: 10%
viability, T/C [42]: 109%
viability, T/C [43]: 112%
viability, T/C [24]: 107%
viability, T/C [25]: 46.7%
viability, T/C [26]: 29.5%
viability, T/C [27]: 9.53%
viability, T/C [44]: 96.8%
viability, T/C [45]: 91.4%
viability, T/C [30]: 82.1%
viability, T/C [31]: 50.1%
viability, T/C [32]: 19.7%
viability, T/C [33]: 7.29%

SMILES: O=C(c1cc(Cc2n[nH]c(=O)c3ccccc23)ccc1F)N1CCN(C(=O)C2CC2)CC1 + NC1CCC(NC2CC2c2ccccc2)CC1
IC50 [1]: > 10000 nM
IC50 [2]: > 10000 nM
IC50 [3]: > 10000 nM
IC50 [4]: > 10000 nM
IC50 [5]: 8150 nM
viability, T/C [8]: 114%
viability, T/C [9]: 119%
viability, T/C [10]: 111%
viability, T/C [11]: 101%
viability, T/C [46]: 83.1%
viability, T/C [47]: 71.4%
viability, T/C [14]: 119%
viability, T/C [15]: 112%
viability, T/C [16]: 115%
viability, T/C [17]: 104%
viability, T/C [48]: 87.1%
viability, T/C [49]: 72.6%
viability, T/C [20]: 115%
viability, T/C [21]: 113%
viability, T/C [22]: 104%
viability, T/C [23]: 92.9%
viability, T/C [50]: 76.6%
viability, T/C [51]: 62.3%
viability, T/C [26]: 99.3%
viability, T/C [27]: 99.3%
viability, T/C [28]: 100%
viability, T/C [29]: 91.8%
viability, T/C [52]: 79.3%
viability, T/C [53]: 57.3%
viability, T/C [32]: 79.8%
viability, T/C [33]: 82.7%
viability, T/C [34]: 88.4%
viability, T/C [35]: 81.7%
viability, T/C [54]: 67.2%
viability, T/C [55]: 46.3%
